Experimental data from ChEMBL document CHEMBL1124124, “Synthesis and interaction with uridine phosphorylase of 5'-deoxy-4',5-difluorouridine, a new prodrug of 5-fluorouracil” (J Med Chem, 1988).

Tests used:
[1] = Half life at pH 1; assay type: ADME; details: buffer
[2] = Half life at pH 7.5; assay type: ADME; details: buffer
L1210 = assay: Inhibition of cell growth of L1210 mouse Leukemia cells; assay type: functional, cell-based
[3] = Half life at pH 7.5; Not detectable hydrolysis after 7 days; assay type: ADME; details: buffer, pH 7.5, 168 h

C[C@@]1(F)OC(n2cc(F)c(=O)[nH]c2=O)[C@H](O)[C@@H]1O (some centres not stated)
half-life [1]: 0.5 h | half-life [2]: 12 h | IC50 (L1210): 0.3 µM

O=c1[nH]cc(F)c(=O)[nH]1 [FLUOROURACIL]
IC50 (L1210): 0.3 µM

C[C@H]1O[C@@H](n2cc(F)c(=O)[nH]c2=O)[C@H](O)[C@@H]1O [DOXIFLURIDINE]
half-life [1]: 250 h | T1/2 [3]: No detectable hydrolysis | IC50 (L1210): 3 µM
